Here are results for one compound from US9492405B2, “Use of fenoterol and fenoterol analogues in the treatment of glioblastomas and astrocytomas” (The United States of America, as represented by the …, priority 2010, dated 2016).

Where “and” joins values, the source holds several entries; their conditions need not be identical. Identical values can stand only once.

One data set is described as follows: in vivo. As to conditions: rat, IV 5 mg/kg. How it is done:
Dose calculations (mg/kg) were based on the individual body weight measured on the day of treatment. Study duration for pharmacokinetic studies was 6 hours. […] Urine was collected for 0-6 hours and 6 to 24 hours from 3 rats in each treatment group.
In the two-compartment model, the drug distributes into two compartments, the central compartment and the tissue, or peripheral compartment. The central compartment represents the blood, extracellular fluid, and highly perfused tissues. The drug distributes rapidly and uniformly in the central compartment. A second compartment, known as the tissue or peripheral compartment, contains tissues in which the drug equilibrates more slowly. Drug transfer between the two compartments is assumed to take place by first-order processes.
The following abbreviations are utilized in Table 4 below: alpha—macro rate constant associated with the distribution phase; beta—macro rate constant associated with the elimination phase; A, B—zero time intercept associated with the alpha phase and beta phase, respectively; AUC—area under the curve; T1/2 (K10)—half-life associated with the rate constant K10; K10—elimination rate—rate at which the drug leaves the system from the central compartment; K12—rate at which drug enters tissue compartment from the central compartment; K21—rate at which drug enters central compartment from tissue compartment; V1—volume of distribution of the central compartment; V2—volume of distribution of the tissue compartment; Vss—volume of distribution at steady state; and Cl—clearance.

Data set [1] can be described thus: Brain-to-plasma distribution of [3H]-(R,R)-methoxyfenoterol after single IV dose. The data set is classed as in vivo. As to conditions: rat, IV. The method, then: An overview of the research study design for evaluating the brain-to-plasma distribution of [^3H]
(specific activity 57 Ci/mmol); vehicle was sterile saline, 0.9% sodium chloride, USP. Dose formulations were prepared on the day of the study. The amount of radioactivity in the dose formulation was determined by liquid scintillation. The study lasted for an hour and radioactivity levels in plasma and brain tissue were evaluated at the conclusion of the study. Approximately 5 mls of whole blood was collected. Blood samples were collected via cardiac puncture, transferred into a tube containing K3EDTA as the anticoagulant and kept on wet ice until processed to plasma. To generate plasma, samples were centrifuged within 15 minutes of collection at 2,500 RPM for 15 minutes at room temperature. Plasma was divided equally into three labeled cryovials and stored on ample dry ice until transferred to a freezer set at ≦−20° C. for storage until analysis. Duplicate aliquots were weighed and then combined with scintillation cocktail. The [^3H] radioactivity was determined on a liquid scintillation counter. Brain samples were snap frozen in liquid nitrogen and stored at ≦−70° C. until analysis. Whole brain tissue was homogenized and the weight of the homogenate was determined. Duplicate aliquots from the homogenate were weighed, solubilized and then combined with scintillation cocktail. The [^3H] radioactivity was determined on a liquid scintillation counter.

A further data set deals with 1321N1 xenograft. Nature of the data set: 1321N1 xenograft implanted in the flank of SKID mice. The data set is classed as in vivo. As to conditions: IP twice a day; day 3-10 30 mg/kg/day, day 10-42 50 mg/kg/day.

As to `COc1ccc(C[C@@H](C)NC[C@H](O)c2cc(O)cc(O)c2)cc1.O=C(O)/C=C/C(=O)O` [(R,R)-2, (R,R)-(−)-1-p-Methoxyphenyl-2-(β-3′,5′-dihydroxy-phenyl-β-oxy)ethylaminopropane Fumarate], the exposure (AUC) in “in vivo” was found to be 96.1011 µg·min/mL. This compound also yielded a Cl in “in vivo” of 15.40 mL/min. Moreover, the K12 in the data set “in vivo” amounted to 0.1309 min⁻¹. Moreover, the K21 in “in vivo” stood at 0.0203 min⁻¹. The “T1/2 (K10)” value in the data set “in vivo” is reported as 13.23 min. The Vss in the data set “in vivo” turned out to be 2189.02 mL. For the same compound, the “Plasma concentration, Average” value in the data set “in vivo” (5 min) is 2120 ng/mL; in “in vivo” (15 min) it was 580 ng/mL; in the data set “in vivo” (30 min) it was 410 ng/mL; in “in vivo” (60 min), 260 ng/mL; in “in vivo” (120 min) it was 170 ng/mL; in “in vivo” (240 min), 120 ng/mL. In addition, the entries for the “Plasma concentration, Average” value in the data set “in vivo” (300 min) and in the data set “in vivo” (360 min) were 70 ng/mL and 60 ng/mL, respectively. Besides, the Individual plasma concentration in the data set “in vivo” (300 min, individual rats, listed as (R,R)-methoxyfenoterol) was 0.06 ug/ml and 0.07 ug/ml (3×) and 0.09 ug/ml. Besides, the V1 in the data set “in vivo” (central compartment) worked out at 294.01 mL. Besides, in “in vivo” (elimination rate), the K10 is 0.0524 min⁻¹. The compound further returned a V2 in “in vivo” (tissue compartment) of 1895.00 mL. This compound also came in with an Alpha in the data set “in vivo” (two-compartment open model) of 0.1982 min⁻¹. For the same compound, in the data set “in vivo” (two-compartment open model), the Beta was found to be 0.0054 min⁻¹. The same compound showed an A in the data set “in vivo” (two-compartment open model, zero time intercept alpha phase) of 4.6437 µg/mL. In the data set “in vivo” (zero time intercept beta phase), this compound displayed a B of 0.3900 µg/mL. Moreover, the “passage through the blood brain barrier” value in data set [1] was “capable of passing through the blood brain barrier”. In the data set with 1321N1 xenograft, the “growth of 1321N1 xenograft” value is given as “inhibits astrocytoma growth in vivo”.

Broadly, the AUC is concentration integrated over time. A lower AUC goes with less exposure. As usually defined, the Vss is a proportionality between amount in the body and measured concentration, not a real space. A high value points to wide distribution into tissue.
